By GI50 is commonly meant the concentration that inhibits growth by half. As usually defined, the TGI is the concentration at which net growth stops.

Test systems include COLO 205 colon; EKVX NSCLC; KM12 colon; LOX IMVI melanoma; MDA-MB-231 breast; MDA-MB-435; SF-268 CNS; SNB-19 CNS; SR leukemia; UO-31 renal.
Common to all, as to assay: DTP human tumour cell line panel, 48 h

Each structure is given as a SMILES string. Where “and” joins values, the source holds several entries; their conditions need not be identical. Equal values may be shown once.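 Grown in 96-well plates, cells were treated for 48 hours with each compound at five concentrations. Insufficient inhibition: endpoint recorded as highest concentration tested. GI50: concentration for 50% inhibition of growth. At the TGI there is no net growth.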 Bounds are passed on as bounds.

Regarding `CN1CCN(Cc2ccc(NC(=O)c3cncc(C#Cc4c(N)ncc5ccc(F)cc45)c3)cc2C(F)(F)F)CC1`, the GI50 is 0.206 µM with COLO 205 colon; 2.83 µM with EKVX NSCLC; 0.005 µM in the assay with KM12 colon; 0.303 µM with LOX IMVI melanoma; 0.24 µM in the assay with MDA-MB-231 breast; 0.18 µM in the assay on MDA-MB-435. In addition, the GI50 was 0.783 µM in the assay on SF-268 CNS, 3.47 µM in the assay with SNB-19 CNS, 0.809 µM in the assay on SR leukemia and 0.688 µM in the assay on UO-31 renal. Further, the TGI in the assay with COLO 205 colon came to 3.32 µM; with EKVX NSCLC, 10.6 µM; in the assay on KM12 colon it was 0.939 µM; in the assay on LOX IMVI melanoma, 1.05 µM; with MDA-MB-231 breast, 1.15 µM; in the assay on MDA-MB-435, 0.876 µM. For the same compound, the concentration for total growth inhibition (TGI) in the assay on SF-268 CNS amounted to 2.43 µM; in the assay on SNB-19 CNS, 12 µM; in the assay with SR leukemia it was 11.3 µM; in the assay with UO-31 renal it was 1.5 µM.
Take `C/C=C\C(C)=C/C(C)C(=O)CC(O)CC1CC(=O)NC(=O)C1` (stereo not given): the TGI in the assay on COLO 205 colon, in the assay with EKVX NSCLC, in the assay on KM12 colon, in the assay on LOX IMVI melanoma, in the assay on MDA-MB-231 breast and in the assay on MDA-MB-435 was > 100 µM in each case. Besides, the TGI in the assay on SF-268 CNS is > 100 µM; in the assay with SNB-19 CNS, > 90.6 µM; in the assay with SR leukemia, > 63.1 µM; in the assay with UO-31 renal, > 100 µM.
Consider `COc1ccc(-c2nccn2-c2cc(OC)c(OC)c(OC)c2)cc1`, for which the GI50 is 0.598 µM in the assay with COLO 205 colon; > 54.5 µM with EKVX NSCLC; 0.451 µM in the assay on KM12 colon; 8.76 µM in the assay on LOX IMVI melanoma; 7.62 µM with MDA-MB-231 breast; 0.222 µM in the assay with MDA-MB-435. The GI50 with SF-268 CNS was 16.6 µM; in the assay with SNB-19 CNS it was 4.77 µM; with SR leukemia, > 100 µM; in the assay on UO-31 renal, 9.38 µM. Also, the total growth inhibition concentration (TGI) in the assay with COLO 205 colon is 7.29 µM; in the assay with EKVX NSCLC, > 100 µM; in the assay with KM12 colon, > 100 µM; in the assay with LOX IMVI melanoma, > 100 µM; in the assay on MDA-MB-231 breast, 90.3 µM; in the assay on MDA-MB-435 it was 3.25 µM. Further, the TGI in the assay on SF-268 CNS is > 100 µM; in the assay with SNB-19 CNS it was > 35.6 µM; in the assay with SR leukemia, > 100 µM; in the assay on UO-31 renal, > 93 µM.
For `O=C1C2=C(Nc3cc([N+](=O)[O-])ccc3N2)OC1c1c[nH]c2ccc(COc3ccccc3)cc12` (stereo not given), the TGI is 55.8 µM in the assay on COLO 205 colon; > 100 µM with EKVX NSCLC; > 100 µM in the assay on KM12 colon; > 100 µM in the assay on LOX IMVI melanoma; > 100 µM in the assay with MDA-MB-231 breast; > 100 µM in the assay with MDA-MB-435. Besides, the TGI with SF-268 CNS, in the assay on SNB-19 CNS, in the assay with SR leukemia and with UO-31 renal was > 100 µM in each case.
`CCS(=O)(=O)Nc1ccc(Oc2ccc(F)cc2F)c(-c2cn(C)c(=O)c3[nH]ccc23)c1`: the GI50 in the assay with COLO 205 colon is < 0.01 µM; in the assay on EKVX NSCLC, 0.196 µM; with KM12 colon it was 0.109 µM; with LOX IMVI melanoma it was 0.0124 µM; in the assay with MDA-MB-231 breast it was 0.0494 µM; with MDA-MB-435, < 0.0112 µM. In addition, the GI50 in the assay with SF-268 CNS was 1.57 µM; in the assay with SNB-19 CNS it was 0.31 µM; with SR leukemia it was 0.0444 µM; in the assay with UO-31 renal it was < 0.01 µM. Moreover, the TGI in the assay with COLO 205 colon stood at 6.29 µM; in the assay on EKVX NSCLC, 31.9 µM; in the assay on KM12 colon it was 18.2 µM; in the assay with LOX IMVI melanoma, 0.905 µM; with MDA-MB-231 breast, 17.5 µM; in the assay with MDA-MB-435, 13.3 µM. Further, the TGI was 53.2 µM in the assay with SF-268 CNS, 30.9 µM with SNB-19 CNS, 30.7 µM in the assay on SR leukemia and 12 µM in the assay with UO-31 renal.
As for `Cc1nn(-c2ccccc2)c2ncc3c(c12)C(=O)N(Cc1ccccc1)C3=O`, the GI50 in the assay on COLO 205 colon was 4.99 µM; with EKVX NSCLC, 5.64 µM; in the assay on KM12 colon, > 100 µM; in the assay with LOX IMVI melanoma, 4.58 µM; with MDA-MB-231 breast it was 5.11 µM; in the assay with MDA-MB-435, > 100 µM. The GI50 was 7.66 µM in the assay on SF-268 CNS, 12.7 µM with SNB-19 CNS, 5.86 µM in the assay with SR leukemia and 2.65 µM in the assay on UO-31 renal. The TGI with COLO 205 colon was > 100 µM; in the assay with EKVX NSCLC, > 100 µM; in the assay with KM12 colon, > 100 µM; in the assay on LOX IMVI melanoma it was > 100 µM; in the assay with MDA-MB-231 breast, 50.2 µM; with MDA-MB-435, > 100 µM. For the same compound, the TGI was 66.5 µM with SF-268 CNS, > 100 µM in the assay on SNB-19 CNS, > 100 µM in the assay on SR leukemia and 8.17 µM in the assay on UO-31 renal.
For the compound `CC(CCC/C=C/CCCN(C)C(=N)N)CC(C)C1OC(=O)C(C)C(O)/C=C/C(C)C(O)C(C)C(O)C(C)C(O)CCCC(O)CC2(O)OC(CC(OC(=O)CC(=O)O)CC(O)CC(O)C(C)C(O)/C=C/C=C/C1C)CC(O)C2O` (stereo not given), the GI50 was 1.75 µM and 2.42 µg/mL in the assay on COLO 205 colon; 3.41 µM and 6.84 µg/mL with EKVX NSCLC; 1.88 µM and 2.62 µg/mL with KM12 colon; 3.17 µM and 12 µg/mL in the assay with LOX IMVI melanoma; 5.59 µM and 8.55 µg/mL with MDA-MB-231 breast; 1.9 µM and 2.45 µg/mL in the assay on MDA-MB-435. The GI50 was 2.76 µM and 6.7 µg/mL in the assay on SF-268 CNS; 4.9 µM and 10.1 µg/mL in the assay on SNB-19 CNS; 2.59 µM and 3.67 µg/mL in the assay with SR leukemia; 3.36 µM and 14.5 µg/mL with UO-31 renal. Besides, the TGI with COLO 205 colon is 3.33 µM and 10.6 µg/mL; in the assay on EKVX NSCLC, 12.6 µM and 16.8 µg/mL; in the assay with KM12 colon, 3.37 µM and 9.79 µg/mL; in the assay on LOX IMVI melanoma, 11.3 µM and 29 µg/mL; with MDA-MB-231 breast it was 19 µM and 19.9 µg/mL; with MDA-MB-435, 4.39 µM and 9.24 µg/mL. Further, the total growth inhibition concentration (TGI) is 7.24 µM and 16.5 µg/mL in the assay with SF-268 CNS; 17 µM and 21.8 µg/mL in the assay with SNB-19 CNS; 4.88 µM and 47 µg/mL in the assay with SR leukemia; 8.6 µM and 26.1 µg/mL in the assay with UO-31 renal.
On to `COC(=O)c1cc2c([nH]c3ccccc32)c(-c2nc3cc(N(S(=O)(=O)c4ccc(C)cc4)S(=O)(=O)c4ccc(C)cc4)c(OC)cc3cc2CO)n1`, for which the GI50 with COLO 205 colon is > 100 µM; with EKVX NSCLC it was > 100 µM; in the assay on KM12 colon, > 100 µM; with LOX IMVI melanoma, > 100 µM; with MDA-MB-231 breast it was 78.6 µM; in the assay on MDA-MB-435, > 100 µM. Besides, the GI50 in the assay on SF-268 CNS is > 100 µM; in the assay with SNB-19 CNS it was 75 µM; in the assay with SR leukemia it was 1.28 µM; with UO-31 renal, > 100 µM. The TGI in the assay on COLO 205 colon, in the assay with EKVX NSCLC, in the assay on KM12 colon, in the assay with LOX IMVI melanoma, in the assay on MDA-MB-231 breast and with MDA-MB-435 was > 100 µM throughout. For the same compound, the TGI in the assay on SF-268 CNS is > 100 µM; with SNB-19 CNS, > 100 µM; in the assay on SR leukemia, 3.48 µM; in the assay on UO-31 renal it was > 100 µM.
